Laboratory results reported in ChEMBL document CHEMBL5528063, “Antitrypanosomal Chloronitrobenzamides” (J Med Chem, 2024).
Activity calls are given as the source filed them. The rule behind the calls is not given here.

How the values were obtained:
[1] = Cytotoxicity against human BJ cells assessed as inhibition of cell growth incubated for 72 hrs by CellTiter-Glo luminescence assay; assay type: toxicity, cell-based
[2] = test system: Trypanosoma brucei brucei; assay: Antitrypanosomal activity against Trypanosoma brucei brucei 427 assessed as inhibition of parasite proliferation at 0.7 to 15000 nM incubated for 48 hrs by CellTiter-Glo luminescent assay; assay type: functional, organism-based; details: dose 0.7-15000 nM
[3] = test system: Trypanosoma brucei brucei; assay: Antitrypanosomal activity against Trypanosoma brucei brucei 427 assessed as inhibition of parasite proliferation incubated for 48 hrs by CellTiter-Glo luminescent assay; assay type: functional, organism-based; details: Trypanosoma brucei, 427, 48 h
[4] = Metabolic stability in […] mouse liver microsomes assessed as half-life at 20 uM measured after 2 hrs by UPLC-MS analysis; assay type: ADME, Microsome
[5] = Aqueous solubility of compound in 1-propanol at pH 7.4 incubated for 18 hrs by UV spectrum analysis; assay type: physicochemical; details: for solubility at 18 h: 1-propanol (aqueous, pH 7.4), pH 7.4
[6] = test system: Trypanosoma brucei brucei; assay: Trypanocidal activity against Trypanosoma brucei brucei 427 assessed as reduction in parasitemia at 2.2 uM incubated for 4 days by clonal dilution based CellTiter-Glo assay; assay type: functional, organism-based; details: time 4.0 day

SMILES | EC50 at 72 h [1] | EC50 [3] | also measured
Cc1ccc(-c2nnn[nH]2)nc1NC(=O)c1cnccc1Cl | > 18 µM |  | Activity [2]: inactive
O=C(NC1CCCC(c2nc3ccccc3s2)C1)c1cc([N+](=O)[O-])ccc1Cl (stereo not given) | > 15 µM | > 7 µM | 
O=C(Nc1cccc(-c2ncc[nH]2)c1)c1cc([N+](=O)[O-])ccc1Cl | > 18 µM | > 8 µM | 
Cc1nc(-c2cccc(NC(=O)c3cc([N+](=O)[O-])ccc3Cl)c2)sc1C | > 17 µM | 2.22 µM | 
O=C(Nc1cccc(-c2nc3ccccc3s2)c1)c1cc([N+](=O)[O-])ccc1Cl | > 15 µM | 0.1 µM | half-life at 20 µM [4]: 11 min; solubility at 18 h [5]: < 1 µM
O=C(Nc1cc(-c2nc3ccccc3s2)ccc1Br)c1cc([N+](=O)[O-])ccc1Cl | > 20 µM | 0.22 µM | half-life at 20 µM [4]: 1.7 min; solubility at 18 h [5]: < 1.56 µM
CSc1ccc(Cl)c(C(=O)Nc2cccc(-c3nc4ccccc4s3)c2)c1 | > 25 µM | > 33 µM | 
N=C(N)c1ccc(OCCCCCOc2ccc(C(=N)N)cc2)cc1 |  |  | Activity [6]: Active
Cc1ccc(-c2nc3ccccc3s2)cc1NC(=O)c1cc(C(F)(F)F)ccc1Cl | > 15 µM | > 6 µM | 
Cc1ccc(-c2nc3ccccc3s2)cc1NC(=O)c1cc([N+](=O)[O-])ccc1Cl | > 25 µM | 0.039 µM | half-life at 20 µM [4]: > 240 min; solubility ([5]; buffer, pH 7.4, 18 h): Insoluble(Bld)
O=C(Nc1cccc(-c2nccs2)n1)c1cnccc1Cl | > 18 µM | > 44 µM | 
Cc1ccc(-c2nnn[nH]2)cc1NC(=O)c1cc([N+](=O)[O-])ccc1Cl | > 18 µM | > 8 µM | 
COc1ccc([N+](=O)[O-])cc1C(=O)Nc1cc(-c2nc3ccccc3s2)ccc1C | > 2 µM | > 1 µM | 
Cc1ccc(-c2nc3ccccc3s2)cc1NC(=O)c1cc(F)ccc1Cl | > 15 µM | > 8 µM | 
O=C(Nc1ccc(Cl)c(-c2nc3ncccc3o2)c1)c1cc([N+](=O)[O-])ccc1Cl | > 26 µM | > 6 µM | 
O=C(Nc1cncc(-c2nc3ccccc3s2)c1)c1cc([N+](=O)[O-])ccc1Cl | > 15 µM | > 8 µM | 
COC(=O)c1ccc(Cl)c(C(=O)Nc2cc(-c3nc4ccccc4s3)ccc2C)c1 | > 28 µM | > 16.1 µM | 
Cc1ccc(-c2nc3ccccc3s2)cc1NC(=O)c1cnccc1Cl | > 25 µM | 0.044 µM | half-life at 20 µM [4]: 12 min; solubility at 18 h [5]: < 1 µM
C[S+]([O-])c1ccc(Cl)c(C(=O)Nc2cccc(-c3nc4ccccc4s3)c2)c1 (stereo not given) | > 25 µM | > 8 µM | 
O=C(Nc1cccc(-c2nc3ccccc3s2)n1)c1cnccc1Cl | > 15 µM | 0.09 µM | half-life at 20 µM [4]: 2 min; solubility at 18 h [5]: < 1.56 µM
Cc1ccc(-c2nc3ccccc3s2)cc1NC(=O)c1cc(NC(=O)OC(C)(C)C)ccc1Cl | > 15 µM | > 8 µM | 

SMILES | EC50 at 72 h [1] | EC50 [3] | also measured
O=C(Nc1cccc(-c2nccs2)c1)c1cc([N+](=O)[O-])ccc1Cl | > 18 µM | > 7 µM | 
Cc1ccc(-c2nc3ccccc3s2)cc1NC(=O)c1cc([N+](=O)[O-])ccc1C(F)(F)F | > 15 µM | > 7 µM | 
COc1ccncc1C(=O)Nc1cc(-c2nc3ccccc3s2)ccc1C | > 21 µM | > 12 µM | 
Cc1ccc(-c2nc3ccccc3s2)cc1NC(=O)c1cc(N)ccc1Cl | > 15 µM | > 5 µM | 
Cc1ccc(-c2nc3ccccc3s2)cc1NC(=O)c1cc(C#N)ccc1Cl | > 15 µM | > 6 µM | 
O=C(Nc1cncc(-c2nc3ccccc3s2)c1)c1cnccc1Cl | > 11 µM | > 5 µM | 
Cc1ccc(-c2nc3ccccc3s2)cc1NC(=O)c1cc(C(N)=O)ccc1Cl | > 22 µM | > 11 µM | 
Cc1ccc(-c2nc3ccccc3s2)cc1NC(=O)c1cnccc1O | > 14 µM | > 8 µM | 
O=C(Nc1cccc(-c2ncco2)c1)c1cc([N+](=O)[O-])ccc1Cl | > 18 µM | > 8 µM | 
Cc1ccc(-c2nc3ccccc3s2)cc1NC(=O)c1cnccc1C(F)(F)F | > 14 µM | > 7 µM | 
Cc1ccc(-c2nc3ccccc3s2)cc1NC(=O)c1cc(C(=O)O)ccc1Cl | > 15 µM | > 5 µM | 
Cc1ccc(-c2nc3ccccc3s2)cc1NC(=O)c1cnccc1C#N | > 13 µM | > 7 µM | 
Cc1ccc(-c2nc3ccccc3s2)cc1NC(=O)c1cnccc1F | > 18 µM | > 10.6 µM | 
Cc1ccc(-c2nc3ncccc3o2)cc1NC(=O)c1cc([N+](=O)[O-])ccc1Cl | > 25 µM | 0.55 µM | half-life at 20 µM [4]: 1.2 min; solubility at 18 h [5]: < 1.56 µM
CS(=O)(=O)c1ccc(Cl)c(C(=O)Nc2cccc(-c3nc4ccccc4s3)c2)c1 | > 25 µM | 4.56 µM | 
Cc1ccc(-c2nc3ccccc3s2)cc1NC(=O)c1cc([N+](=O)[O-])ccc1C#N | > 17 µM | > 9 µM | 
CC(=O)Nc1ccc(Cl)c(C(=O)Nc2cc(-c3nc4ccccc4s3)ccc2C)c1 | > 15 µM | > 7 µM | 
Cc1ccc(-c2nc3ccccc3s2)cc1NC(=O)c1cc([N+](=O)[O-])ccc1O | > 14 µM | > 7 µM | 
O=C(Nc1cccc(-c2nc3ccccc3s2)n1)c1cc([N+](=O)[O-])ccc1Cl | > 15 µM | > 7 µM | 
Cc1ccc(-c2nc3ccccc3s2)cc1NC(=O)c1cc([N+](=O)[O-])ccc1F | > 17 µM | 0.004 µM | half-life at 20 µM [4]: 21 min; solubility at 18 h [5]: < 1.56 µM
